Like-named read-outs stand apart in the source and are kept apart here.
Molecular target: T1, Human Factor D (Homo sapiens, UniProt P00746)
T1 construct: purified from human serum; purchased Complement Technology, Inc; host or cells: human serum
Assay: Human Factor D assay (Example 8)
Format: biochemical
Method: Human Factor D (purified from human serum, Complement Technology, Inc.) at 80 nM final concentration was incubated with test compound at various concentrations for 5 minutes at room temperature in 50 mM Tris, 1M NaCl, pH 7.5. A synthetic substrate Z-L-Lys-SBzl and DTNB (Ellman's reagent) are added to final concentrations of 100 μM each. […] IC50 values are calculated by nonlinear regression of complement Factor D reaction rates as a function of test compound concentration.

[1] = Table 1, Human Factor D 80 nM, substrate Z-L-Lys-SBzl, read-out: IC50
[2] = Table 2, Human Factor D 80 nM, substrate Z-L-Lys-SBzl, read-out: IC50
[3] = Table 3, Human Factor D 80 nM, substrate Z-L-Lys-SBzl, read-out: IC50 (Stars)

T1 sequence (P00746 26-253): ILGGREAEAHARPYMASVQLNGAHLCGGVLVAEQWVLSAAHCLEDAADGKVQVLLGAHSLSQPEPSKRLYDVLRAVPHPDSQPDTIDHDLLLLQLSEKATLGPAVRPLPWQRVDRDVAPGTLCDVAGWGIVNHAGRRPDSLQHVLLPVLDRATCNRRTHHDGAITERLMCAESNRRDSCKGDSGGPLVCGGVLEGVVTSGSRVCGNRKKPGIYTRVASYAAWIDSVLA

## CC(=O)n1cc(C(=O)C(=O)N2C[C@H](F)C[C@H]2C(=O)NCc2cccc(Cl)c2F)c2ccccc21 [Compound 71, (2S,4R)-1-(2-(1-acetyl-1H-indol-3-yl)-2-oxoacetyl)-N-(3-chloro-2-fluorobenzyl)-4-fluoropyrrolidine-2-carboxamide]
[1]
  IC50: > 10000 nM

## O=C1CCCc2c1c1ccccc1n2CC(=O)N1C[C@H](F)C[C@H]1C(=O)NCc1cccc(Cl)c1F [Compound 37, (2S,4R)-N-(3-chloro-2-fluorobenzyl)-4-fluoro-1-(2-(4-oxo-3,4-dihydro-1H-carbazol-9(2H)-yl)acetyl)pyrrolidine-2-carboxamide]
[1]
  IC50: < 1000 nM

## NC(=O)n1cc(NC(=O)N2C[C@H](F)C[C@H]2C(=O)NS(=O)(=O)c2cccc(Cl)c2F)c2ccccc21 [Compound 6, (2S,4R)-N1-(1-carbamoyl-1H-indol-3-yl)-N2-(3-chloro-2-fluorophenylsulfonyl)-4-fluoropyrrolidine-1,2-dicarboxamide]
[1]
  IC50: > 10000 nM

## NS(=O)(=O)c1cn(CC(=O)N2C[C@H](F)C[C@H]2C(=O)NCc2cccc(Cl)c2F)c2ccccc12 [Compound 76, (2S,4R)-N-(3-chloro-2-fluorobenzyl)-4-fluoro-1-(2-(3-sulfamoyl-1H-indol-1-yl)acetyl)pyrrolidine-2-carboxamide]
[1]
  IC50: < 1000 nM

## NC(=O)c1nn(CC(=O)N2C[C@H](F)C[C@H]2C(=O)Nc2cccc(-c3cc(C(=O)CO)ccc3Cl)c2F)c2ccccc12 [Compound 141, 1-(2-((2S,4R)-2-(2′-chloro-2-fluoro-5′-(2-hydroxyacetyl)bi-phenyl-3-ylcarbamoyl)-4-fluoropyrrolidin-1-yl)-2-oxoethyl)-1H-indazole-3-carboxamide]
[2]
  IC50: < 1000 nM

## NC(=O)c1nn(CC(=O)N2C[C@H](F)C[C@H]2C(=O)Nc2cccc(-c3cc(Cl)c4nc[nH]c4c3)c2F)c2ccccc12 [Compound 458, 1-(2-((2S,4R)-2-(3-(4-chloro-1H-benzo[d]imidazol-6-yl)-2-fluorophenylcarb-amoyl)-4-fluoropyrrolidin-1-yl)-2-oxoethyl)-1H-indazole-3-carboxamide]
[3]
  IC50: < 1000 nM

## CC(=O)c1nn(CC(=O)N2C[C@H](F)C[C@H]2C(=O)Nc2cccc(-c3ccc4c(c3Cl)NCCN4)c2F)c2ccccc12 [Compound 445, (2S,4R)-1-(2-(3-Acetyl-1H-indazol-1-yl)acetyl)-N-(3-(5-chloro-1,2,3,4-tetrahydroquinoxalin-6-yl)-2-fluorophenyl)-4-fluoropyrrolidine-2-carboxamide]
[3]
  IC50: < 1000 nM

## CC(=O)n1cc(NC(=O)[C@H]2CCCN2C(=O)NCc2cccc(Cl)c2F)c2ccccc21 [Compound 9, (R)-N2-(1-acetyl-1H-indol-3-yl)-N1-(3-chloro-2-fluorobenzyl)pyrroli-dine-1,2-dicarboxamide]
[1]
  IC50: > 10000 nM

## NC(=O)c1nn(CC(=O)N2C[C@H](F)C[C@H]2C(=O)Nc2nc3cccc(Cl)c3[nH]2)c2ccccc12 [Compound 136, 1-(2-((2S,4R)-2-(7-chloro-1H-benzo[d]imidazol-2-ylcarbamoyl)-4-fluoropyrrolidin-1-yl)-2-oxoethyl)-1H-indazole-3-carboxamide]
[2]
  IC50: < 1000 nM

## CC(C)(C)OC(=O)N1CCc2c(n(CC(=O)N3C[C@H](F)C[C@H]3C(=O)NCc3cccc(Cl)c3F)c3ccccc23)C1 [Compound 67, tert-butyl 9-(2-((2S,4R)-2-(3-chloro-2-fluorobenzylcarbamoyl)-4-fluoropyrrolidin-1-yl)-2-oxoethyl)-3,4-dihydro-1H-pyrido[3,4-b]indole-2(9H)-carboxylate]
[1]
  IC50: > 10000 nM

## CC(=O)Nc1cn(CC(=O)N2C[C@H](F)C[C@H]2C(=O)NCc2cccc(Cl)c2F)c2ccccc12 [Compound 47, (2S,4R)-1-(2-(3-acetamido-1H-indol-1-yl)acetyl)-N-(3-chloro-2-fluorobenzyl)-4-fluoropyrrolidine-2-carboxamide]
[1]
  IC50: < 1000 nM

## CC(=O)c1cn(CC(=O)N2[C@H](C(=O)NCc3cccc(Cl)c3F)C[C@@H]3CCCC[C@@H]32)c2cc(O)ccc12 [Compound 35, (2S,3aS,7aS)-1-(2-(3-acetyl-6-hydroxy-1H-indol-1-yl)acetyl)-N-(3-chloro-2-fluorobenzyl)octa-hydro-1H-indole-2-carboxamide]
  IC50: < 1000 nM

## CC(=O)Nc1cccc2c1c(C(C)=O)cn2CC(=O)N1C[C@H](F)C[C@H]1C(=O)Nc1cccc(-c2ccccc2Cl)c1F [Compound 91, (2S,4R)-1-(2-(4-acetamido-3-acetyl-1H-indol-1-yl)acetyl)-N-(2′-chloro-2-fluorobiphenyl-3-yl)-4-fluoropyrrolidine-2-carboxamide]
[1]
  IC50: > 10000 nM

## CC(=O)c1nc(CC(=O)N2C[C@H](F)C[C@H]2C(=O)Nc2cccc(-c3ccccc3Cl)c2F)n2ccccc12 [Compound 372, (2S,4R)-1-(2-(1-Acetylimidazo[1,5-a]pyridin-3-yl)acetyl)-N-(2′-chloro-2-fluoro-[1,1′-biphenyl]-3-yl)-4-fluoropyrrolidine-2-carboxamide]
[3]
  IC50: < 1000 nM

## NC(=O)c1nn(CC(=O)N2C[C@H](F)C[C@H]2C(=O)Nc2cccc(-c3ccccc3Cl)c2F)c2cc(C(=O)O)sc12 [Compound 326, 3-carbamoyl-1-(2-((2S,4R)-2-((2′-chloro-2-fluoro-[1,1′-biphenyl]-3-yl)carbamoyl)-4-fluoropyrrolidin-1-yl)-2-oxoethyl)-1H-thieno[3,2-c]pyrazole-5-carboxylic acid]
[3]
  IC50: < 1000 nM

## CC(=O)c1cn(C(C)(C)C(=O)N2C[C@H](F)C[C@H]2C(=O)NCc2cccc(Cl)c2F)c2ccccc12 [Compound 56]
[1]
  IC50: > 10000 nM

## O=C(NCc1cccc(Cl)c1F)[C@@H]1C[C@@H](F)CN1C(=O)c1csc(-c2cccnc2)n1 [Compound 50, (2S,4R)-N-(3-chloro-2-fluorobenzyl)-4-fluoro-1-(2-(pyridin-3-yl)thiazole-4-carbonyl)pyrrolidine-2-carboxamide]
[1]
  IC50: > 10000 nM

## NC(=O)c1nn(CC(=O)N2[C@@H]3C[C@@H]3C[C@H]2C(=O)NCc2cccc(Cl)c2F)c2ccsc12 [Compound 107, 1-(2-((1R,3S,5R)-3-(3-chloro-2-fluorobenzylcarbamoyl)-2-azabicyclo[3.1.0]hexan-2-yl)-2-oxoethyl)-1H-thieno[3,2-c]pyrazole-3-carboxamide]
[1]
  IC50: < 1000 nM

## NC(=O)c1nn(CC(=O)N2CCC[C@H]2C(=O)Nc2cccc(-c3ccccc3Cl)c2F)c2ccccc12 [Compound 337, (S)-1-(2-(2-((2′-chloro-2-fluoro-[1,1′-biphenyl]-3-yl)carbamoyl)pyrrolidin-1-yl)-2-oxoethyl)-1H-indazole-3-carboxamide]
[3]
  IC50: < 1000 nM

## NC(=O)c1nn(CC(=O)N2CC[C@@H](O)[C@H]2C(=O)Nc2cccc(-c3ccccc3Cl)c2F)c2ccccc12 [Compound 374]
[3]
  IC50: < 1000 nM

## CC(=O)c1nn(CC(=O)N2C[C@H](F)C[C@H]2C(=O)Nc2cccc(SC(F)(F)F)c2)c2cnccc12 [Compound 45, (2S,4R)-1-(2-(3-acetyl-1H-pyrazolo[3,4-c]pyridin-1-yl)acetyl)-4-fluoro-N-(3-(trifluoromethylthio)phenyl)pyrrolidine-2-carboxamide]
[1]
  IC50: < 1000 nM

## NC(=O)c1nn(CC(=O)N2C[C@H](F)C[C@H]2C(=O)Nc2cccc(-c3cc(F)cc(F)c3Cl)c2F)c2ccccc12 [Compound 94, 1-(2-((2S,4R)-2-(2′-chloro-2,3′,5′-trifluorobiphenyl-3-ylcarbamoyl)-4-fluoropyrrolidin-1-yl)-2-oxoethyl)-1H-indazole-3-carboxamide]
  IC50: < 1000 nM

## CC(=O)c1cn(CC(=O)N2C[C@H](F)C[C@H]2C(=O)Nc2cccc(Br)n2)c2ccc(C3(NC(=O)OC(C)(C)C)CC3)cc12 [Compound 123, tert-butyl 1-(3-acetyl-1-(2-((2S,4R)-2-(6-bromopyridin-2-ylcarbamoyl)-4-fluoropyrrolidin-1-yl)-2-oxoethyl)-1H-indol-5-yl)cyclopropyl-carbamate]
  IC50: < 1000 nM

## COC(=O)c1cccc(NC(=O)[C@@H]2C[C@@H](F)CN2C(=O)Cn2nc(C(N)=O)c3ccccc32)c1F [Compound 345, methyl 3-((2S,4R)-1-(2-(3-carbamoyl-1H-indazol-1-yl)acetyl)-4-fluoropyrrolidine-2-carboxamido)-2-fluorobenzoate]
[3]
  IC50: < 1000 nM

## CC(=O)c1cc(CC(=O)N2C[C@H](F)C[C@H]2C(=O)Nc2cccc(Br)n2)n2ccccc12 [Compound 314, (2S,4R)-1-(2-(1-Acetylindolizin-3-yl)acetyl)-N-(6-bromopyridin-2-yl)-4-fluoropyrrolidine-2-carboxamide]
[3]
  IC50: < 1000 nM

## N[C@@H](Cc1c[nH]c2ccccc12)C(=O)N1C[C@H](F)C[C@H]1C(=O)NCc1cccc(Cl)c1F [Compound 39, (2S,4R)-1-((S)-2-amino-3-(1H-indol-3-yl)propanoyl)-N-(3-chloro-2-fluorobenzyl)-4-fluoropyrrolidine-2-carboxamide]
[1]
  IC50: > 10000 nM

## NC(=O)c1nn(CC(=O)N2[C@@H]3C[C@@H]3C[C@H]2C(=O)Nc2cccc(-c3ccccc3Cl)c2F)cc1Br [Compound 77, (1R,3S,5R)-2-(2-(4-Bromo-3-carbamoyl-1H-pyrazol-1-yl)acetyl)-N-(2′-chloro-2-fluoro-[1,1′-biphenyl]-3-yl)-2-azabicyclo[3.1.0]hexane-3-carboxamide]
[1]
  IC50: < 1000 nM

## NC(=O)c1nn(CC(=O)N2CC(F)(F)C[C@H]2C(=O)Nc2cccc(-c3ccccc3Cl)c2F)c2ccccc12 [Compound 353, (S)-1-(2-(2-((2′-chloro-2-fluoro-[1,1′-biphenyl]-3-yl)carbamoyl)-4,4-difluoropyrrolidin-1-yl)-2-oxoethyl)-1H-indazole-3-carboxamide]
[3]
  IC50: < 1000 nM

## CC(=O)c1cn(C(C)C(=O)N2C[C@H](F)C[C@H]2C(=O)NCc2cccc(Cl)c2F)c2ccccc12 (some centres unmarked) [Compound 55]
[1]
  IC50: > 10000 nM

Reference: patent publication US10092584B2 (Achillion Pharmaceuticals, Inc., priority 2015, dated 2018)
